# What was measured:
# [1] = test system: uric acid in blood; experiment: Multiple dose study (SDD, 14 days): uric acid in blood of healthy subjects; type: in vivo, human; settings: 600 mg BID; 30 subjects enrolled in the study
# Description: (§1) Uric acid measurements were performed using a commercial colorimetric assay kit (Beckman Coulter).
# Multiple oral doses of 100 mg twice daily (BID), 300 mg BID, and 600 mg BID of 4-[2-(5-amino-1H-pyrazol-4-yl)-4-chlorophenoxy]-5-chloro-2-fluoro-N-(1,3-thiazol-4-yl)benzenesulfonamide SDD dispersion for oral administration, and placebo, were investigated for 14 days. Subjects were fasted overnight prior to the morning doses and for at least 2 hours prior to the evening doses. Food was withheld for at least 2 hours postdose.
# A total of 30 subjects (all male) were enrolled in the study and 27 subjects completed the study (three subjects were withdrawn due to adverse events during treatment with 600 mg BID 4-[2-(5-amino-1H-pyrazol-4-yl)-4-chlorophenoxy]-5-chloro-2-fluoro-N-(1,3-thiazol-4-yl)benzenesulfonamide).
# [2] = test system: uric acid in blood; experiment: Multiple dose study (TS, 14 days): uric acid in blood of healthy and elderly subjects; type: in vivo, human
# Description: as §1
# (§2) Multiple oral doses of 4-[2-(5-amino-1H-pyrazol-4-yl)-4-chlorophenoxy]-5-chloro-2-fluoro-N-(1,3-thiazol-4-yl)benzenesulfonamide TS dispersion for oral administration, and placebo, were investigated for 14 days, as follows: • healthy subjects, 300 mg twice daily (BID,) • healthy subjects, 450 mg BID, and • elderly subjects, 300 mg BID.
# (§3) Subjects were fasted overnight prior to the morning doses and for at least 2 hours prior to the evening doses. Food was withheld for at least 2 hours postdose.
# A total of 49 subjects were enrolled in the study of which 39 received 4-[2-(5-amino-1H-pyrazol-4-yl)-4-chlorophenoxy]-5-chloro-2-fluoro-N-(1,3-thiazol-4-yl)benzenesulfonamide TS and 10 received placebo.
# [3] = test system: uric acid in urine; experiment: Multiple dose study (TS, 14 days): fraction of uric acid excreted in urine; type: in vivo, human
# Description: as §2, §3
# Uric acid was also measured in urine collected over 24 hours prior to dosing on Day 1, and then on Days 6, 14 and 16. The percent excreted fraction of uric acid in urine was calculated and analyzed with a linear mixed effects model.
# [4] = biological target: T1, URAT-1 transporter (Homo sapiens, UniProt Q96S37); experiment: URAT-1 inhibitor activity: [14C]-uric acid uptake in HEK-URAT1 cells; type: cell-based; settings: [14C]-uric acid (20 μM), 2 minutes, normalised to the standard compound benzbromarone, read-out: inhibition of uric acid uptake (IC50)
# T1 construct: expressed in transfected cells; host or cells: HEK293 cells, transient transfection with Lipofectamine 2000
# T1 sequence (Q96S37 1-553): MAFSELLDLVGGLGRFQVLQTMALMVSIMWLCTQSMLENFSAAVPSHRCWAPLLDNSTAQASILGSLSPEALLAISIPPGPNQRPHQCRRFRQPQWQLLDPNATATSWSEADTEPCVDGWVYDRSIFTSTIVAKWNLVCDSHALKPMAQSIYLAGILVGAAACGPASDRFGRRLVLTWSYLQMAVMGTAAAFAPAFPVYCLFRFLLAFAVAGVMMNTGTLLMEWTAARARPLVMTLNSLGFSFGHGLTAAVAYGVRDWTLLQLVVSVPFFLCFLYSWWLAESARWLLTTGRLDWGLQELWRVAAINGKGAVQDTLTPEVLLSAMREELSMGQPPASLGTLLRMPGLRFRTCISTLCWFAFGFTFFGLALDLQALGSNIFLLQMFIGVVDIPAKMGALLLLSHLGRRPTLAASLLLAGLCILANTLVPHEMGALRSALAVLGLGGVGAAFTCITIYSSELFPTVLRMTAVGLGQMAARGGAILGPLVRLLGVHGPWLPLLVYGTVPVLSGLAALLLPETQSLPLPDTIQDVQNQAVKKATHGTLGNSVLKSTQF
# Description: The potency of 4-[2-(5-amino-1H-pyrazol-4-yl)-4-chlorophenoxy]-5-chloro-2-fluoro-N-(1,3-thiazol-4-yl)benzenesulfonamide as an inhibitor of the URAT-1 transporter was determined as follows.
# HEK293 cells were grown in medium consisting of Dulbecco's modified Eagle medium (DMEM) with L-GlutaMax (4.5 g of glucose per litre), supplemented with heat-inactivated foetal calf serum (10% v/v), 100 U/mL penicillin and 100 μg/mL streptomycin. The HEK cells were routinely cultured in 75 cm^2 tissue culture flasks in a humidified incubator at approximately 37° C. in approximately 95% air/5% CO2. […]
# One day after transfection, culture medium was removed from the wells and the cells were pre-incubated with 0.2 mL of chlorine-free incubation medium (125 mM Na-gluconate, 4.8 mM K-gluconate, 1.3 mM Ca-gluconate, 1.2 mM KH2PO4, 1.2 mM MgSO4, 5.6 mM D-glucose, 25 mM HEPES, pH 7.4), in the absence and presence of 4-[2-(5-amino-1H-pyrazol-4-yl)-4-chlorophenoxy]-5-chloro-2-fluoro-N-(1,3-thiazol-4-yl)benzenesulfonamide (0-30 μM), for 15 minutes at approximately 37° C. […] The concentrations of [^14C]-uric acid were determined by liquid scintillation counting (LSC). The inhibition of [^14C]-uric acid transport was also determined in the presence of the known inhibitor benzbromarone (30 μM). […]
# The amount of radioactivity present in cell lysate samples was determined by liquid scintillation counting (LSC). […]
compound,measurement,setting,value
"Nc1[nH]ncc1-c1cc(Cl)ccc1Oc1cc(F)c(S(=O)(=O)Nc2cscn2)cc1Cl [4-[2-(5-amino-1H-pyrazol-4-yl)-4-chlorophenoxy]-5-chloro-2-fluoro-N-(1,3-thiazol-4-yl)benzenesulfonamide]",subjects withdrawn due to adverse events,[1],three
same,median blood uric acid concentration versus LLN,"[2]; 450 mg BID, Day 3",fell below LLN
same,Concentrations of uric acid in blood following dosing,[2]; TS BID for 14 days,decreased
same,median blood uric acid concentration versus LLN,"[2]; all cohorts (300 mg and 450 mg BID), Day 6",below the LLN
same,time until blood uric acid returned to above the LLN after cessation of dosing,[2]; all subjects (i.e. by Day 16),≤ 2 days
same,excreted fraction of uric acid in urine after dosing,[3]; Day 16,returns to baseline by Day 16
same,excreted fraction of uric acid in urine during dosing,"[3]; TS BID, 24 hour urine",increases during dosing
same,IC50,[4],3.54 µM

# From patent publication US20140248252A1, “New Salt And Medical Use” (Pfizer Limited, priority 2011, published 2014)
